Experimental data published in PMC9007462 (Journal of Medicinal Chemistry, 2022).

What was measured:
[1] = target: T1, Human ALDH1A1 (Homo sapiens, UniProt P00352); test: Inhibition screening, single point at 10 μM, ALDH1A1; type: biochemical; settings: 10 μM compound; 5 μM hexanal (Figure S1)
T1 construct: made in house
T1 sequence (P00352 1-501): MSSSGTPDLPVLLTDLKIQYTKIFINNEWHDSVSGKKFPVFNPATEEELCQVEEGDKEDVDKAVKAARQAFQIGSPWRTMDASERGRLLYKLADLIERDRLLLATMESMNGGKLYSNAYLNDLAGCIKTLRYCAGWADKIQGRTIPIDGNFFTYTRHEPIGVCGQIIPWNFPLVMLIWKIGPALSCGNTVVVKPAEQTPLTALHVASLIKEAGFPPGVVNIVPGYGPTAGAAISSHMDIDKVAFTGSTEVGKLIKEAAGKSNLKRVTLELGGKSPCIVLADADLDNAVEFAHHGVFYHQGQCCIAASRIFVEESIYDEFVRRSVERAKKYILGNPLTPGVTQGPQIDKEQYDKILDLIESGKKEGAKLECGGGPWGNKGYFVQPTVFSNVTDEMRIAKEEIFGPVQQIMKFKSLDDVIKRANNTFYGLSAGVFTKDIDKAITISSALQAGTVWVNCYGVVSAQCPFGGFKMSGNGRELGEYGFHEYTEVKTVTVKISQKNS
Method: (§1) Human ALDH1A1, ALDH1A3, and ALDH3A1 were cloned and recombinantly expressed from the pET-30 Xa/LIC vector. Protein purification was achieved by affinity chromatography on a nickel-charged chelating Sepharose Fast Flow 5-mL column (His Trap column, Cytiva), which specifically binds the protein due to its N-terminal (His)6 tag, using an ÄKTA FPLC system (Cytiva), as previously described.[55] Enzymes including the His tag were stored at −80 °C in 20 mM Tris/HCl and 0.5 M NaCl, pH 8.0, until use. Reaction buffers were as follows: ALDH1A1 was assayed in 50 mM HEPES, 0.5 mM EDTA, and 0.5 mM DTT, pH 8.0; ALDH1A3 was assayed in 50 mM HEPES, 30 mM MgCl2, and 5 mM DTT, pH 8.0; and ALDH3A1 was assayed in 50 mM Tris–HCl and 5 mM DTT, pH 8.0. Activity under standard conditions was measured fluorimetrically at 25 °C using a Cary Eclipse (Varian) fluorimeter to follow the purification procedure and to check the enzyme concentration before each kinetic experiment. The fluorescence of NADH was characterized at 460 nm with excitation at 340 nm, and 5 μM NAD(P)H was added as an internal standard to obtain the absolute reaction rates.[55] Standard activity was measured at saturating concentrations of substrate using 30 μM hexanal (ALDH1A1), 250 μM hexanal (ALDH1A3), or 250 μM 4-NBA (ALDH3A1). NAD^+ was 500 μM for ALDH1A1 and ALDH1A3, and NADP^+ was 1 mM for ALDH3A1.
All compounds tested were dissolved in DMSO and assayed at a final concentration of 1% (v/v) DMSO. […] For the initial screening, the enzymatic activity was measured in 96-well plates (final volume of 200 μL) in a Victor 3 Multilabel Plate Reader (Perkin Elmer), by monitoring the fluorescence of the NAD(P)H produced during the reaction (excitation at 340 nm and emission at 460 nm). Alternatively, the enzymatic activity was measured in a Varian Cary 400 UV–vis spectrophotometer, by monitoring the increase in the absorbance of NAD(P)H at 340 nm (ε = 6.22 mM^–1·cm^–1) or in a Cary Eclipse Varian fluorimeter, as described above. […] For ALDH1A1, 5 μM hexanal (Sigma) was used. For ALDH1A3, 10 and 250 μM hexanal (Sigma) were used. For ALDH3A1, 4-NBA (Sigma) was used at 31 and 250 μM. All substrates were prepared in the corresponding assay buffer at a concentration of 2 mM and further diluted to reach the final concentrations required per experiment. The concentration of the enzyme was kept from 50- to 100-fold lower than that of the substrate for all enzymatic assays.

[2] = system: DU145; test: MTT chemosensitivity assay, DU145; type: cell-based, human; settings: Homo sapiens, DU-145, 96 h exposure, ± SD, at least three independent experiments
Method: (§2) MTT (3-(4, 5-dimethyl-2-thiazolyl)-2, 5-diphenyl-2H-tetrazolium bromide) assay was used to determine cell viability.[64] Immortalized PCa cells (PC-3, Du-145, and LNCaP) were seeded in 96-well plates and allowed to adhere overnight at 37 °C, 5% CO2, and 100% humidity. […] After 96 h of exposure, 200 μL of MTT (Sigma) solution (0.5 mg/mL) was added to each well and incubated at 37 °C for 4 h. The formazan crystals were dissolved in DMSO (Sigma), and the absorbance was read using a microplate reader (Multiskan EX; Thermo Fisher Scientific) at 540 nm. Data analysis was performed using Microsoft Excel 2013 and GraphPad Prism software.

[3] = system: LNCaP; test: MTT chemosensitivity assay, LNCaP; type: cell-based, human; settings: Homo sapiens, LNCaP, 96 h exposure, ± SD, at least three independent experiments
Method: as §2

[4] = system: PC3; test: MTT chemosensitivity assay, PC3; type: cell-based, human; settings: Homo sapiens, PC-3, 96 h exposure, ± SD, at least three independent experiments
Method: as §2

[5] = target: T2, Human ALDH3A1 (Homo sapiens, UniProt P30838); test: DEAB analogues as substrates of ALDH3A1 (substrate activity and kinetics); type: biochemical
T2 construct: made in house
T2 sequence (P30838 1-453): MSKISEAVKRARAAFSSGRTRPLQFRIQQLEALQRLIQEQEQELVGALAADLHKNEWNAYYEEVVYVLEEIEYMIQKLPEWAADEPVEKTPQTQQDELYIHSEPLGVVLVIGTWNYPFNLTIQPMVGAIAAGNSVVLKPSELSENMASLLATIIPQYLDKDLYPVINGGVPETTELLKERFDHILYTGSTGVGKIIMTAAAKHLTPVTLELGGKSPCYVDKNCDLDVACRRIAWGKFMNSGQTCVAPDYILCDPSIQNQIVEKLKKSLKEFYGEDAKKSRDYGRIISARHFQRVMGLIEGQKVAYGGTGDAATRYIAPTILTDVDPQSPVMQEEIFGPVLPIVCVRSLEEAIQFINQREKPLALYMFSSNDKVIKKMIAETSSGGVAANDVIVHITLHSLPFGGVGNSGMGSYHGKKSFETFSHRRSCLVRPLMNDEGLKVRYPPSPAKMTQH
Method: as §1
(§3) According to their structure with a carbonyl group, compounds were tested for their substrate properties against ALDH1A1, ALDH1A3, and ALDH3A1. […] Results are expressed as the percentage of activity at 10 μM versus the activity at 10 μM of their standard substrate (hexanal or 4-NBA). Values are expressed as the mean ± SE.
To calculate the Km value of compound 18 as a substrate for ALDH3A1, several concentrations of compound 18 were used. Experimental values were fitted to the adaptation of the Michaelis–Menten equation for substrate inhibition [drawing 1] and shown as the mean ± SE.

[6] = target: T2, Human ALDH3A1; test: ALDH3A1 inhibition, IC50, Ki and type of inhibition; type: biochemical; settings: for IC50: 31 μM 4-NBA as substrate
Method: as §1
(§4) In order to determine the IC50 values, reaction rates were determined at various concentrations of inhibitor at a fixed concentration of substrate. As substrates for ALDH1A1, ALDH1A3, and ALDH3A1, 5 μM hexanal, 6 μM hexanal, and 31 μM 4-NBA, respectively, were used. The IC50 values were calculated by nonlinear fitting of the obtained data to a sigmoidal plot using GraFit 5.0 (Erithacus software), with the following 4-parameter equation [drawing 2] , where y is the specific activity, x is the inhibitor concentration, background is the minimum y value, range is the fitted uninhibited value minus the background, and s is the slope factor. Values are expressed as the mean ± SE.
Activity assays to determine the type of inhibition and Ki value were performed using various substrate and inhibitor concentrations maintaining the same conditions as for the IC50 experiments and using GraFit 5.0 for data processing. The data of enzymatic activities at different inhibitor concentrations were fitted to the Michaelis–Menten equation to determine the values of Km and Vmax. Next, results were fitted to the equations for competitive, given by [drawing 3]; noncompetitive, given by [drawing 4]; uncompetitive, given by [drawing 5]; and mixed, given by [drawing 6] .[56] The type of inhibition was selected based on the lowest error value. Parameters were expressed as the mean ± SE.

[7] = target: T3, Human ALDH1A3 (Homo sapiens, UniProt P47895); test: ALDH1A3 inhibition, IC50, Ki and type of inhibition; type: biochemical; settings: for IC50: 6 μM hexanal as substrate
T3 construct: made in house
T3 sequence (P47895 1-512): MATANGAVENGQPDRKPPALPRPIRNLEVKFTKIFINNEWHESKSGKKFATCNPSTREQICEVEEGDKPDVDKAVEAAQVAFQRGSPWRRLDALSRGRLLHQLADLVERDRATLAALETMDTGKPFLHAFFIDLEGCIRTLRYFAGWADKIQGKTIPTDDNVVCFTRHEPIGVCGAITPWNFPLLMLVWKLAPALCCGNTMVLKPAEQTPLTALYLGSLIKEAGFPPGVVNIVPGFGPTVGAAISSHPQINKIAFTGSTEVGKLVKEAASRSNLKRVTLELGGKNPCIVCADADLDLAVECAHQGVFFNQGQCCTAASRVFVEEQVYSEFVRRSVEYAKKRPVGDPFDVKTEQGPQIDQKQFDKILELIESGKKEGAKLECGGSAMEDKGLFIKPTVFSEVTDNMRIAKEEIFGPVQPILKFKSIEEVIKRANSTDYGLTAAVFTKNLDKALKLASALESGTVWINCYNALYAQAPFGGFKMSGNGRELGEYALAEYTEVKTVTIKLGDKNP
Method: Human ALDH1A1, ALDH1A3, and ALDH3A1 were cloned and recombinantly expressed from the pET-30 Xa/LIC vector. Protein purification was achieved by affinity chromatography on a nickel-charged chelating Sepharose Fast Flow 5-mL column (His Trap column, Cytiva), which specifically binds the protein due to its N-terminal (His)6 tag, using an ÄKTA FPLC system (Cytiva), as previously described.[55] Enzymes including the His tag were stored at −80 °C in 20 mM Tris/HCl and 0.5 M NaCl, pH 8.0, until use. Reaction buffers were as follows: ALDH1A1 was assayed in 50 mM HEPES, 0.5 mM EDTA, and 0.5 mM DTT, pH 8.0; […] Activity under standard conditions was measured fluorimetrically at 25 °C using a Cary Eclipse (Varian) fluorimeter to follow the purification procedure and to check the enzyme concentration before each kinetic experiment. […] In order to determine the IC50 values, reaction rates were determined at various concentrations of inhibitor at a fixed concentration of substrate. […] Values are expressed as the mean ± SE. […] The data of enzymatic activities at different inhibitor concentrations were fitted to the Michaelis–Menten equation to determine the values of Km and Vmax. Next, results were fitted to the equations for competitive, given by [drawing 3]; noncompetitive, given by [drawing 4]; uncompetitive, given by [drawing 5]; and mixed, given by [drawing 6] .[56] The type of inhibition was selected based on the lowest error value. Parameters were expressed as the mean ± SE.

[8] = target: T1, Human ALDH1A1; test: DEAB analogues as substrates of ALDH1A1; type: biochemical; settings: 10 μM compound as substrate, relative to activity with 10 μM hexanal (Figure S2)
Method: as §1, §3

[9] = target: T1, Human ALDH1A1; test: ALDH1A1 inhibition, IC50 determination; type: biochemical; settings: 5 μM hexanal as substrate; mean ± SE
Method: as §1, §4

Compound | remaining ALDH1A1 activity [1] [%] | IC50 [2] [µM] | IC50 [3] [µM] | IC50 [4] [µM] | IC50 ([7]; mean ± SE) [µM] | other results
CCCN(CCC)c1ccc(C=O)cc1 [Compound 1, 4-(Dipropylamino)benzaldehyde] | 12 | 190 ± 25 | 73 ± 14 | > 200 |  | 
O=Cc1ccc(N2CCCC2)cc1 [Compound 4, 4-(Pyrrolidin-1-yl)benzaldehyde] | 10 |  |  |  |  | 
O=Cc1ccc([N+](=O)[O-])cc1 [Compound 4-NBA, 4-Nitrobenzaldehyde, reference compound] |  |  |  |  |  | Km ([5]; mean ± SE): 31 ± 4.9 µM; kcat as ALDH3A1 substrate ([5]; mean ± SE): 359 ± 14 min^–1; Km fold higher than compound 18 (ALDH3A1 substrate) ([5]; ratio of Km values): 10 fold; turnover number (kcat) fold higher than compound 18 (ALDH3A1) ([5]; ratio of kcat values): 26 fold
O=Cc1ccc(N2CCOCC2)c(Cl)c1 [Compound 9, 3-Chloro-4-morpholinobenzaldehyde] |  |  |  |  | 2.37 ± 0.19 | IC50 ([6]; mean ± SE): 64.1 ± 6.7 µM
O=Cc1ccc(N2CCCC2)c(Cl)c1 [Compound 12, 3-Chloro-4-(pyrrolidin-1-yl)benzaldehyde] | 17 |  |  |  | 0.31 ± 0.03 | 
CCN(CC)c1ccc(C=O)cc1Br [Compound 13, 3-Bromo-4-(diethylamino)benzaldehyde] | 24 | 123 ± 12 | 47 ± 0.6 | 166 ± 41 | 10.7 ± 1.3 | ALDH1A1 substrate activity [8]: ~60%
CC(C)Oc1ccc(C=O)cc1 [Compound 16, 4-Isopropoxybenzaldehyde] |  | > 200 | > 200 | > 200 | 0.26 ± 0.01 | ALDH3A1 substrate activity ([5]; 10 μM compound as substrate, relative to activity with 10 μM 4-NBA (Figure S2)): good ALDH3A1 substrate; type of inhibition ALDH1A3 ([7]; hexanal as substrate): competitive; Ki ([7]; hexanal as substrate, fit to competitive inhibition equation, mean ± SE): < 1 µM
CCN(CC)c1ccc(C=O)cc1[N+](=O)[O-] [Compound 19, 4-(Diethylamino)-3-Nitrobenzaldehyde] |  | > 200 | 136 ± 13 | > 200 |  | IC50 ([6]; mean ± SE): 1.29 ± 0.15 µM; type of inhibition ALDH3A1 ([6]; 4-NBA as substrate): competitive; Ki ([6]; 4-NBA as substrate, fit to competitive inhibition equation, mean ± SE): 0.24 ± 0.04 µM; ALDH1A1 substrate activity [8]: 69%
Cc1cc(C=O)ccc1N1CCCC1 [Compound 26, 3-Methyl-4-(pyrrolidin-1-yl)benzaldehyde] |  | > 200 | 172 ± 8 | > 200 | 1.15 ± 0.15 | IC50 [9]: 0.8 ± 0.16 µM
COc1cc(C=O)ccc1N1CCCC1 [Compound 29, 3-Methoxy-4-(pyrrolidin-1-yl)benzaldehyde] |  |  |  |  | 4.86 ± 0.81 | IC50 [9]: 0.88 ± 0.05 µM
